Results taken from article PMC6792352, “Limited Chemical Structural Diversity Found to Modulate Thyroid Hormone Receptor in the Tox21 Chemical Library” (Environmental Health Perspectives, 2019).
Where a name gives a salt, the structure may show the parent alone.

Experiment: in vitro
Details: rat, gh3-tre-luc cells

## CCCCCCCCCCCCCCN(C)C [N,N-Dimethyltetradecylamine]
AC50 (uM) modified / 1000
  CC50 at 24 h: > 20 µM

## CN(C)CCc1c[nH]c2ccccc12 [N,N-Dimethyltryptamine fumarate]
AC50 (uM) modified / 1000
  CC50 at 24 h: > 100 µM

## CCCN(CCC)CCc1c[nH]c2ccccc12 [N,N-Dipropyltryptamine hydrochloride]
AC50 (uM) modified / 1000, Tox21_110001=Tox21_112893, viability, 1 nM T3 present, 24 h
  CC50 at 24 h: 39.8 µM

## CN(C)c1ccncc1 [N,N-dimethylpyridin-4-amine]
AC50 (uM) modified / 1000
  CC50 at 24 h: > 90 µM

## CC(C)CC(C)Nc1ccc(Nc2ccccc2)cc1 (stereo not shown) [N-(1,3-Dimethylbutyl)-N'-phenyl-p-phenylenediamine]
AC50 (uM) modified / 1000
  CC50 at 24 h: 39 µM

## CCC(CC)Nc1ccc(C)c(C)c1 [N-(1-Ethylpropyl)-3,4-xylidine]
AC50 (uM) modified / 1000
  CC50 at 24 h: > 90 µM

## CCCCCCC(C)Nc1ccc(Nc2ccccc2)cc1 (stereo not shown) [N-(1-Methylheptyl)-N'-phenyl-1,4-benzenediamine]
AC50 (uM) modified / 1000
  CC50 at 24 h: 35.9 µM

## CC(=O)CC(=O)Nc1ccc(C)cc1C [N-(2,4-Dimethylphenyl)-3-oxobutanamide]
AC50 (uM) modified / 1000
  CC50 at 24 h: > 90 µM

## CC(=O)Nc1ccc(C)cc1C [N-(2,4-Dimethylphenyl)acetamide]
AC50 (uM) modified / 1000
  CC50 at 24 h: > 90 µM

## Cc1ccc(NC=O)c(C)c1 [N-(2,4-Dimethylphenyl)formamide]
AC50 (uM) modified / 1000
  CC50 at 24 h: > 90 µM

## COc1ccc(OC)c(NC(=O)CC(C)=O)c1 [N-(2,5-Dimethoxyphenyl)-3-oxobutanamide]
AC50 (uM) modified / 1000
  CC50 at 24 h: > 90 µM

## O=C(Nc1ccc2c(c1)Cc1ccccc1-2)C(F)(F)F [N-(2-Fluorenyl)-2,2,2-trifluoroacetamide]
AC50 (uM) modified / 1000
  CC50 at 24 h: > 90 µM

## CC(=O)NCCO [N-(2-Hydroxyethyl)acetamide]
AC50 (uM) modified / 1000
  CC50 at 24 h: > 90 µM

## COc1ccccc1NC(=O)CC(C)=O [N-(2-Methoxyphenyl)-3-oxobutanamide]
AC50 (uM) modified / 1000
  CC50 at 24 h: > 90 µM

## CC(=O)CC(=O)Nc1ccccc1C [N-(2-Methylphenyl)-3-oxobutanamide]
AC50 (uM) modified / 1000
  CC50 at 24 h: > 90 µM

## CNC(=O)Nc1ccc(Cl)c(Cl)c1 [N-(3,4-Dichlorophenyl)-N'-methylurea]
AC50 (uM) modified / 1000
  CC50 at 24 h: > 90 µM

## COc1ccc(NC(C)=O)cc1N [N-(3-Amino-4-methoxyphenyl)acetamide]
AC50 (uM) modified / 1000
  CC50 at 24 h: > 90 µM

## CCC(=O)Nc1cccc(N)c1 [N-(3-Aminophenyl)propanamide]
AC50 (uM) modified / 1000
  CC50 at 24 h: > 90 µM

## CC(=O)Nc1ccc(C)c(Cl)c1 [N-(3-Chloro-4-methylphenyl)acetamide]
AC50 (uM) modified / 1000
  CC50 at 24 h: > 90 µM

## CCOc1ccc(NC(=O)CC(C)=O)cc1 [N-(4-Ethoxyphenyl)-3-oxobutanamide]
AC50 (uM) modified / 1000
  CC50 at 24 h: > 90 µM

## COc1ccc(NC(=O)CC(C)=O)cc1 [N-(4-Methoxyphenyl)-3-oxobutanamide]
AC50 (uM) modified / 1000
  CC50 at 24 h: > 90 µM

## COc1ccc(NC(C)=O)cc1 [N-(4-Methoxyphenyl)acetamide]
AC50 (uM) modified / 1000
  CC50 at 24 h: > 90 µM

## CC(C)CC(C)N(c1ccccc1)c1ccc(N)cc1 (stereo not shown) [N-(4-Methylpentan-2-yl)-N-phenylbenzene-1,4-diamine]
AC50 (uM) modified / 1000
  CC50 at 24 h: 28.5 µM

## CC(C)C[C@H](NC(=O)OCC1c2ccccc2-c2ccccc21)C(=O)O [N-(9-Fluorenylmethoxycarbonyl)-L-leucine]
AC50 (uM) modified / 1000
  CC50 at 24 h: > 90 µM

## CCCCCCCCCCCC[N+](C)(C)CC(=O)O [N-(Alkyl C10-C16)-N,N-dimethylglycine betaine]
AC50 (uM) modified / 1000
  CC50 at 24 h: 79.2 µM

## C=CC(=O)NCOCCCC [N-(Butoxymethyl)acrylamide]
AC50 (uM) modified / 1000
  CC50 at 24 h: > 100 µM

## C[N+](C)=CCl [N-(Chloromethylidene)-N-methylmethanaminium chloride]
AC50 (uM) modified / 1000
  CC50 at 24 h: > 90 µM

## NCCNCCO [N-(Hydroxyethyl)ethylenediamine]
AC50 (uM) modified / 1000
  CC50 at 24 h: > 90 µM

## C=CC(=O)NCOCC(C)C [N-(Isobutoxymethyl)acrylamide]
AC50 (uM) modified / 1000
  CC50 at 24 h: > 90 µM

## CC(=O)Nc1ccc(S(=O)(=O)Nc2cc(C)on2)cc1 [N-Acetyl sulfamethoxazole]
AC50 (uM) modified / 1000
  CC50 at 24 h: > 50 µM

## CC(=O)N[C@@H](CS)C(=O)O [N-Acetyl-L-cysteine]
AC50 (uM) modified / 1000
  CC50 at 24 h: > 90 µM

## CC(=O)N[C@@H](CCC(=O)O)C(=O)O [N-Acetyl-L-glutamic acid]
AC50 (uM) modified / 1000
  CC50 at 24 h: > 50 µM

## CC(=O)N[C@@H](Cc1ccc(O)cc1)C(=O)O [N-Acetyl-L-tyrosine]
AC50 (uM) modified / 1000
  CC50 at 24 h: > 50 µM

## CC(=O)Nc1cccc(C)c1 [N-Acetyl-m-toluidine]
AC50 (uM) modified / 1000
  CC50 at 24 h: > 90 µM

## CC(=O)Nc1ccccc1C [N-Acetyl-o-toluidine]
AC50 (uM) modified / 1000
  CC50 at 24 h: > 100 µM

## CC(=O)Nc1ccc(C)cc1 [N-Acetyl-p-toluidine]
AC50 (uM) modified / 1000
  CC50 at 24 h: > 90 µM

## CC(=O)N[C@H]1C(O)O[C@H](CO)[C@H](O)[C@@H]1O (stereo partly shown) [N-Acetylgalactosamine]
AC50 (uM) modified / 1000
  CC50 at 24 h: > 50 µM

## CC(=O)N[C@@H]1[C@@H](O)[C@H](O)[C@@H](CO)O[C@H]1O [N-Acetylglucosamine]
AC50 (uM) modified / 1000
  CC50 at 24 h: > 50 µM

## ON(Cc1ccccc1)Cc1ccccc1 [N-Benzyl-N-hydroxy-1-phenylmethanamine]
AC50 (uM) modified / 1000
  CC50 at 24 h: > 90 µM

## c1ccc(CNc2ncnc3nc[nH]c23)cc1 [N-Benzyladenine]
AC50 (uM) modified / 1000
  CC50 at 24 h: > 90 µM

## OCCNCc1ccccc1 [N-Benzylethanolamine]
AC50 (uM) modified / 1000
  CC50 at 24 h: > 90 µM

## CCCCNCCCC [N-Butyl-1-butanamine]
AC50 (uM) modified / 1000
  CC50 at 24 h: > 90 µM

## CCCCNC1CC(C)(C)NC(C)(C)C1 [N-Butyl-2,2,6,6-tetramethylpiperidin-4-amine]
AC50 (uM) modified / 1000
  CC50 at 24 h: > 90 µM

## CCCCN(N=O)C(=N)N[N+](=O)[O-] [N-Butyl-N'-nitro-N-nitrosoguanidine]
AC50 (uM) modified / 1000
  CC50 at 24 h: 56.4 µM

## CCCCNS(=O)(=O)c1ccc(C)cc1 [N-Butyl-p-toluenesulfonamide]
AC50 (uM) modified / 1000
  CC50 at 24 h: > 90 µM

## CCCCNc1ccccc1 [N-Butylaniline]
AC50 (uM) modified / 1000
  CC50 at 24 h: > 90 µM

## CCCCNS(=O)(=O)c1ccccc1 [N-Butylbenzenesulfonamide]
AC50 (uM) modified / 1000
  CC50 at 24 h: > 90 µM

## CCCCN(CCO)CCO [N-Butyldiethanolamine]
AC50 (uM) modified / 1000
  CC50 at 24 h: > 90 µM

## CCCCON=O [N-Butylnitrite]
AC50 (uM) modified / 1000, Tox21_110001=Tox21_202927, viability, 1 nM T3 present, 24 h
  CC50 at 24 h: > 90 µM

## CCCCNP(N)(N)=S [N-Butylphosphorothioic triamide]
AC50 (uM) modified / 1000, Tox21_110001=Tox21_302015, viability, 1 nM T3 present, 24 h
  CC50 at 24 h: > 90 µM

## CCCCNC(N)=O [N-Butylurea]
AC50 (uM) modified / 1000
  CC50 at 24 h: > 90 µM

## NC(=O)N[C@@H](CCC(=O)O)C(=O)O [N-Carbamyl-L-glutamic acid]
AC50 (uM) modified / 1000
  CC50 at 24 h: > 50 µM

## O=C1CCC(=O)N1Cl [N-Chlorosuccinimide]
AC50 (uM) modified / 1000
  CC50 at 24 h: > 90 µM

## c1ccc2sc(SNC3CCCCC3)nc2c1 [N-Cyclohexyl-2-benzothiazolesulfenamide]
AC50 (uM) modified / 1000
  CC50 at 24 h: > 90 µM

## Cc1ccc(S(=O)(=O)NC2CCCCC2)cc1 [N-Cyclohexyl-4-methylbenzenesulfonamide]
AC50 (uM) modified / 1000
  CC50 at 24 h: > 90 µM

## CN(C1CCCCC1)C1CCCCC1 [N-Cyclohexyl-N-methylcyclohexanamine]
AC50 (uM) modified / 1000
  CC50 at 24 h: > 90 µM

## C=C(C)CNCC [N-Ethyl-2-methylallylamine]
AC50 (uM) modified / 1000
  CC50 at 24 h: > 90 µM

## CCNc1cccc(C)c1 [N-Ethyl-3-methylaniline]
AC50 (uM) modified / 1000
  CC50 at 24 h: > 90 µM

## CCNC(=O)C1CC(C)CCC1C(C)C (stereo not shown) [N-Ethyl-4-menthane-3-carboxamide]
AC50 (uM) modified / 1000
  CC50 at 24 h: > 90 µM

## CCNS(=O)(=O)c1ccc(C)cc1 [N-Ethyl-4-methylbenzenesulfonamide]
AC50 (uM) modified / 1000
  CC50 at 24 h: > 90 µM

## CCCCNCC [N-Ethyl-N-butylamine]
AC50 (uM) modified / 1000
  CC50 at 24 h: > 90 µM

## CCN(Cc1ccccc1)c1ccccc1 [N-Ethyl-N-phenyl benzylamine]
AC50 (uM) modified / 1000
  CC50 at 24 h: > 90 µM

## CCNc1ccccc1 [N-Ethylaniline]
AC50 (uM) modified / 1000
  CC50 at 24 h: > 90 µM

## CCN1CCOCC1 [N-Ethylmorpholine]
AC50 (uM) modified / 1000
  CC50 at 24 h: > 90 µM

## CCNS(=O)(=O)C(F)(F)C(F)(F)C(F)(F)C(F)(F)C(F)(F)C(F)(F)C(F)(F)C(F)(F)F [N-Ethylperfluorooctanesulfonamide]
AC50 (uM) modified / 1000
  CC50 at 24 h: > 90 µM

## CC(CC(C)C)=NO [N-Hydroxy-4-methylpentan-2-imine]
AC50 (uM) modified / 1000
  CC50 at 24 h: > 90 µM

## O=C(NO)c1ccccc1 [N-Hydroxybenzamide]
AC50 (uM) modified / 1000
  CC50 at 24 h: > 90 µM
